What all share (type): functional
One assay has as its system PC-3. Description: Cytotoxicity against human PC3 cells assessed as induction of cell death after 48 hrs by MTS assay. Particulars: PC-3, 48 h, read-out: LC50 (the source's name). Background: Tetrazolium assays rely on reduction of a dye to a coloured formazan, in cell work by metabolically active cells.
Assay [1] has as its system LNCaP. As to the kind of experiment: Cytotoxicity against human LNCAP cells assessed as induction of cell death after 48 hrs by MTS assay. Particulars: read-out: LC50 (the source's name).
Assay [2] relates to LNCaP. Description: Selectivity ratio of LC50 for human PC3 cells to LC50 for human LNCaP cells.

The source of these data is ChEMBL document CHEMBL3596184, “Prostate tumor specific peptide-peptoid hybrid prodrugs” (2015).

Numbered stars: 1 amine (or outer) side, 2 acyl side, 3 side chain; on linkers, the order of the positions; unused ones are H or OH. Square brackets hold non-standard residues; d marks the D form. Peptide text beside a SMILES is read from it. γGlu = O=C(O)[C@H](CCC(=O)[*:2])N[*:1]; Nspe = C[C@H](NCC(=O)O)c1ccccc1; Nlys = NCCCCNCC(=O)O

As for `CC(C)C[C@H](NC(=O)[C@H](CCCCN)NC(=O)[C@H](CO)NC(=O)[C@H](CO)NC(=O)[C@H](Cc1cnc[nH]1)NC(=O)CC[C@H](NC(=O)CC[C@H](N)C(=O)O)C(=O)O)C(=O)N[C@@H](CCC(N)=O)C(=O)N(CCCCN)CC(=O)N(CC(=O)N(CC(=O)N(CCCCN)CC(=O)N(CC(=O)N(CC(=O)N(CCCCN)CC(=O)N(CC(=O)N(CC(=O)N(CCCCN)CC(=O)N(CC(=O)N(CC(N)=O)[C@@H](C)c1ccccc1)[C@@H](C)c1ccccc1)[C@@H](C)c1ccccc1)[C@@H](C)c1ccccc1)[C@@H](C)c1ccccc1)[C@@H](C)c1ccccc1)[C@@H](C)c1ccccc1)[C@@H](C)c1ccccc1` ({γGlu-γGlu}-HSSKLQ[Nlys][Nspe][Nspe][Nlys][Nspe][Nspe][Nlys][Nspe][Nspe][Nlys][Nspe][Nspe]-NH2), the CC50 in the assay on PC-3 came to 18 µM; in the assay with LNCaP [1], 10 µM. Further, the RatioLC50 with LNCaP [2] was determined as 1.8.

Regarding `C[C@@H](c1ccccc1)N(CC(N)=O)C(=O)CN(C(=O)CN(CCCCN)C(=O)CN(C(=O)CN(C(=O)CN(CCCCN)C(=O)CN(C(=O)CN(C(=O)CN(CCCCN)C(=O)CN(C(=O)CN(C(=O)CN(CCCCN)C(=O)CC[C@H](NC(=O)CC[C@H](N)C(=O)O)C(=O)O)[C@@H](C)c1ccccc1)[C@@H](C)c1ccccc1)[C@@H](C)c1ccccc1)[C@@H](C)c1ccccc1)[C@@H](C)c1ccccc1)[C@@H](C)c1ccccc1)[C@@H](C)c1ccccc1` ({γGlu-γGlu}-[Nlys][Nspe][Nspe][Nlys][Nspe][Nspe][Nlys][Nspe][Nspe][Nlys][Nspe][Nspe]-NH2), the CC50 is 18 µM with PC-3 and 10 µM with LNCaP [1]. The RatioLC50 in the assay with LNCaP [2] amounted to 1.8.
